{"source": "patent US20200352976A1", "about": "“HYPOMETHYLATING AGENTS FOR USE IN TREATMENT OF CANCER” (Otsuka Pharmaceutical Co., Ltd, priority 2019, published 2020)", "key": {"[1]": {"experiment": "Phase 3 trial safety: adverse events, ECG, mortality", "format": "in vivo", "source_text": "Two co-primary endpoints were used: complete response (CR) rate based on modified International Working Group (IWG) 2003 AML Response Criteria and OS (the number of days from randomization to death). Secondary endpoints included CRc (CR+CR with incomplete blood count recovery [CRi]+CR with incomplete platelet recovery [CRp]) rate, number of days alive and out of the hospital (NDAOH), progression-free survival (PFS), health related quality of life (QOL) by EQ-5D (consisting of the EQ-5D-5L descriptive system and the EQ Visual Analogue Scale [EQ VAS]), duration of CR (the time from first CR to time of relapse), incidence and severity of adverse events (AEs), and 30- and 60-day all-cause mortality.\nThe incidence and severity of adverse events (AEs) and 30- and 60-day all-cause mortality were summarized with descriptive statistics. No formal statistical testing between the treatment groups was planned for safety assessments."}, "[2]": {"system": "acute myeloid leukemia (TN and relapsed/refractory AML)", "experiment": "Phase 2 study in AML (TN and r/r): landmark response and survival analyses", "format": "in vivo, human", "procedure": "In a Phase 2 study of 206 AML patients, both treatment naïve (TN), and relapsed/refractory (r/r), patients were treated with Compound I-1 using different doses and schedules. The patients were randomized either to a 5- or 10-day dosing regimen. The patients who were part of the 10-day regimen were given Compound I-1 at 60 mg/m^2/day for 1-4 cycles, then were given the 5-day regimen. The patients who were part of the 5-day regimen were randomized either to the biologically effective dose group (60 mg/m^2 daily) or the highest well tolerated dose group (90 mg/m^2 daily).\nLandmark response (CR, CRi, or CRp based on 2003 IWG criteria, grouped together as composite CR or CRc), and overall survival (OS) analyses for patients alive at or beyond month 3 and month 5 (time of planned start of cycle 4 and cycle 6, respectively) were conducted. […] The results in responding and non-responding patients were also compared to see whether survival benefit was restricted to responding patients only."}, "[3]": {"system": "relapsed/refractory (r/r) AML", "experiment": "Phase 2 study in relapsed/refractory AML: response, duration of response, survival", "format": "in vivo, human", "conditions": "for CR response rate, % / CRc (CR + CRp + CRi) response rate, % / CRi response rate, % / CRp response rate, % / CRc, %: r/r AML; for CRc, %: all regimens", "procedure": "A Phase 2 study of Compound I-1 using different regimens and doses (randomized 5-day regimen cohorts of 60 mg/m^2/d vs 90 mg/m^2/d SC) and a cohort of 10-day regimen in the first 1-4 cycles at 60 mg/m^2/d followed by subsequent cycles of 5-day regimen) was conducted as described above. Response and duration of response were assessed using IWG 2003 criteria: Complete Response (CR), CR with incomplete platelet recovery (CRp), and CR with incomplete count recovery (CRi). CR+CRp+CRi was defined as composite CR (CRc). Overall survival (OS) was assessed using the Kaplan-Meier (KM) method. Response status for each dose/regimen cohort and the overall treated population were assessed with analyses of duration of response and long-term survival."}, "[4]": {"conditions": "5 Day regimen (60 and 90 mg/m^2), n = 50"}, "[5]": {"conditions": "10 Day regimen (60 mg/m^2), n = 53"}}}
{"smiles": "Nc1ncn([C@H]2CC(OP(=O)(O)OC[C@H]3O[C@@H](n4cnc5c(=O)[nH]c(N)nc54)CC3O)[C@@H](CO)O2)c(=O)n1", "note": "(some centres unmarked) [Compound I-1]", "values": [{"measurement": "Related AE with an outcome of death, each of: hematophagy histiocytosis, small intestinal hemorrhage, general physical health deterioration, mucormycosis, osteonecrosis", "setting": "[1]; 1 subject each", "value": 0.2, "unit": "%"}, {"measurement": "Discontinuations due to a related AE that was an infection event", "setting": "[1]; human, in vivo", "value": 7, "unit": "subjects"}, {"measurement": "Dose reductions due to AEs", "setting": "[1]; human, in vivo", "value": 6.0, "unit": "%"}, {"measurement": "Related SAE anemia", "setting": "[1]; human, in vivo", "value": 1.0, "unit": "%"}, {"measurement": "Related SAE febrile neutropenia", "setting": "[1]; human, in vivo", "value": 13.7, "unit": "%"}, {"measurement": "Related SAE pneumonia", "setting": "[1]; human, in vivo", "value": 8.5, "unit": "%"}, {"measurement": "Related SAE sepsis", "setting": "[1]; human, in vivo", "value": 4.0, "unit": "%"}, {"measurement": "Related SAE septic shock", "setting": "[1]; human, in vivo", "value": 1.2, "unit": "%"}, {"measurement": "Related SAE thrombocytopenia", "setting": "[1]; human, in vivo", "value": 1.7, "unit": "%"}, {"measurement": "SAE febrile neutropenia incidence", "setting": "[1]; human, in vivo", "value": 25.2, "unit": "%"}, {"measurement": "SAE pneumonia incidence", "setting": "[1]; human, in vivo", "value": 28.4, "unit": "%"}, {"measurement": "SAE sepsis incidence", "setting": "[1]; human, in vivo", "value": 15.0, "unit": "%"}, {"measurement": "Treatment Discontinuation Before 4 Cycles: Adverse Event", "setting": "[1]; human, in vivo", "value": 6.4, "unit": "%"}, {"measurement": "Treatment Discontinuation Before 6 Cycles: Adverse Event", "setting": "[1]; human, in vivo", "value": 7.4, "unit": "%"}, {"measurement": "Treatment delays due to adverse events", "setting": "[1]; human, in vivo", "value": 48.1, "unit": "%"}, {"measurement": "AE with an outcome of death: febrile neutropenia", "setting": "[1]; human, in vivo, 60 mg/m^2", "value": 0.2, "unit": "%"}, {"measurement": "AE with an outcome of death: pneumonia", "setting": "[1]; human, in vivo, 60 mg/m^2", "value": 5.0, "unit": "%"}, {"measurement": "AE with an outcome of death: sepsis", "setting": "[1]; human, in vivo, 60 mg/m^2", "value": 6.5, "unit": "%"}, {"measurement": "AE with an outcome of death: septic shock", "setting": "[1]; human, in vivo, 60 mg/m^2", "value": 2.0, "unit": "%"}, {"measurement": "Related AE with an outcome of death: febrile neutropenia", "setting": "[1]; human, in vivo, 60 mg/m^2", "value": 0.2, "unit": "%"}, {"measurement": "Thirty-day all-cause mortality", "setting": "[1]; human, in vivo, 60 mg/m^2, 30 day", "value": 11.2, "unit": "%"}, {"measurement": "60-day mortality", "setting": "[1]; human, in vivo, 60 mg/m^2, 60 day", "value": 20.9, "unit": "%"}, {"measurement": "Effect on heart rate (ECG)", "setting": "[1]; in vivo", "value": "no effect on heart rate"}, {"measurement": "Effects on ECG parameters", "setting": "[1]; in vivo", "value": "No effects on ECG parameters were observed"}, {"measurement": "Treatment Discontinuation Before 4 Cycles: Death", "setting": "[1]; n = 408 I-1, n = 407 TC", "value": 17.6, "unit": "%"}, {"measurement": "Treatment Discontinuation Before 6 Cycles: Death", "setting": "[1]; n = 408 I-1, n = 407 TC", "value": 22.5, "unit": "%"}, {"measurement": "Median OS", "setting": "[2]; landmark, at least 4 cycles", "value": 13.7, "unit": "m"}, {"measurement": "CRc rate", "setting": "[2]; landmark, at least 4 cycles (97 patients)", "value": 62, "unit": "%"}, {"measurement": "OS HR", "setting": "[2]; landmark, at least 4 cycles vs not", "value": 0.53}, {"measurement": "Median OS", "setting": "[2]; landmark, at least 6 cycles", "value": 19.9, "unit": "m"}, {"measurement": "CRc rate", "setting": "[2]; landmark, at least 6 cycles (51 patients)", "value": 82.4, "unit": "%"}, {"measurement": "OS HR", "setting": "[2]; landmark, at least 6 cycles vs not", "value": 0.42}, {"measurement": "Median OS", "setting": "[2]; landmark, fewer than 4 cycles", "value": 6.1, "unit": "m"}, {"measurement": "CRc rate", "setting": "[2]; landmark, fewer than 4 cycles (64 patients)", "value": 25, "unit": "%"}, {"measurement": "Median OS", "setting": "[2]; landmark, fewer than 6 cycles", "value": 8.8, "unit": "m"}, {"measurement": "CRc rate", "setting": "[2]; landmark, fewer than 6 cycles (82 patients)", "value": 35.4, "unit": "%"}, {"measurement": "Median OS", "setting": "[2]; no CRc, at least 4 cycles", "value": 8, "unit": "m"}, {"measurement": "OS HR", "setting": "[2]; no CRc, at least 4 cycles vs not", "value": 0.63}, {"measurement": "Median OS", "setting": "[2]; no CRc, at least 6 cycles", "value": 12.9, "unit": "m"}, {"measurement": "OS HR", "setting": "[2]; no CRc, at least 6 cycles vs not", "value": 0.40}, {"measurement": "Median OS", "setting": "[2]; no CRc, fewer than 4 cycles", "value": 5.4, "unit": "m"}, {"measurement": "Median OS", "setting": "[2]; no CRc, fewer than 6 cycles", "value": 8, "unit": "m"}, {"measurement": "CR Rate", "setting": "[3]; 5-day regimen", "value": 8, "unit": "%"}, {"measurement": "CRc rate", "setting": "[3]; 5-day regimen", "value": 16, "unit": "%"}, {"measurement": "CR Rate", "setting": "[3]; 10-day regimen", "value": 19, "unit": "%"}, {"measurement": "CRc rate", "setting": "[3]; 10-day regimen", "value": 30, "unit": "%"}, {"measurement": "2-year survival rate", "setting": "[3]; CR", "value": 57, "unit": "%"}, {"measurement": "2-year survival rate", "setting": "[3]; CRc patients receiving HCT", "value": 50, "unit": "%"}, {"measurement": "2-year survival rate", "setting": "[3]; CRc patients who did not undergo HCT", "value": 60, "unit": "%"}, {"measurement": "2-year survival rate", "setting": "[3]; CRp/CRi", "value": 50, "unit": "%"}, {"measurement": "CRc", "setting": "[3]; early relapse (<6 months from prior treatment)", "value": 22, "unit": "%"}, {"measurement": "CR Composite (CR + CRp + CRi) Duration of Response, median (range)", "setting": "[3]; in vivo", "value": "7.8 (0.5-30) Months"}, {"measurement": "Complete Response (CR) Duration of Response, median (range)", "setting": "[3]; in vivo", "value": "7 (1-29.5) Months"}, {"measurement": "Post treatment HCT in responders", "setting": "[3]; in vivo", "value": 58, "unit": "%"}, {"measurement": "Achieved CRc", "setting": "[3]; of 19 patients who had prior HCT", "value": 5, "unit": "patients"}, {"measurement": "Median OS", "setting": "[3]; patients who achieved CRc (either CR or CRp/CRi)", "value": "has not been reached"}, {"measurement": "CRc", "setting": "[3]; patients who relapsed after prior HCT (19 patients)", "value": 26, "unit": "%"}, {"measurement": "CRc", "setting": "[3]; patients with poor risk cytogenetics", "value": 19, "unit": "%"}, {"measurement": "CR response rate, %", "setting": "[3]; [4]", "value": "(6%)"}, {"measurement": "CRc (CR + CRp + CRi) response rate, %", "setting": "[3]; [4]", "value": "(16%)"}, {"measurement": "CRi response rate, %", "setting": "[3]; [4]", "value": "(8%)"}, {"measurement": "CRp response rate, %", "setting": "[3]; [4]", "value": "(2%)"}, {"measurement": "CR response rate, %", "setting": "[3]; [5]", "value": "(19%)"}, {"measurement": "CRc (CR + CRp + CRi) response rate, %", "setting": "[3]; [5]", "value": "(30%)"}, {"measurement": "CRi response rate, %", "setting": "[3]; [5]", "value": "(4%)"}, {"measurement": "CRp response rate, %", "setting": "[3]; [5]", "value": "(7%)"}, {"measurement": "CRc, %", "setting": "[3]; subgroup Age (y) <65 (N 63)", "value": "(19%)"}, {"measurement": "CRc, %", "setting": "[3]; subgroup Age (y) >65 (N 40)", "value": "(30%)"}, {"measurement": "CRc, %", "setting": "[3]; subgroup Cytogenetics Adverse (N 42)", "value": "(19%)"}, {"measurement": "CRc, %", "setting": "[3]; subgroup Cytogenetics Diploid (N 21)", "value": "(19%)"}, {"measurement": "CRc, %", "setting": "[3]; subgroup Cytogenetics Others (N 40)", "value": "(30%)"}, {"measurement": "CRc, %", "setting": "[3]; subgroup ECOG PS 0-1 (N 89)", "value": "(26%)"}, {"measurement": "CRc, %", "setting": "[3]; subgroup ECOG PS 2 (N 12)", "value": "(7%)"}, {"measurement": "CRc, %", "setting": "[3]; subgroup Prior HCT No (N 84)", "value": "(23%)"}, {"measurement": "CRc, %", "setting": "[3]; subgroup Prior HCT Yes (N 19)", "value": "(26%)"}, {"measurement": "CRc, %", "setting": "[3]; subgroup Response to Induction CR (N 55)", "value": "(15%)"}, {"measurement": "CRc, %", "setting": "[3]; subgroup Response to Induction Refractory (N 48)", "value": "(25%)"}, {"measurement": "CRc, %", "setting": "[3]; subgroup Time From Last Therapy <6 months (N 82)", "value": "(22%)"}, {"measurement": "CRc, %", "setting": "[3]; subgroup Time From Last Therapy >6 months (N 20)", "value": "(30%)"}, {"measurement": "CRc", "setting": "[3]; refractory patients", "value": 31, "unit": "%"}]}
